From patent publication US8563565B2, “Pyrazoloquinoline derivatives” (Eisai R&D Management Co., Ltd., priority 2011, dated 2013)
Read-outs that look alike come from different tables or passages of the source.

How the values were obtained:
[1] = system: cGMP in the cerebrospinal fluid; test: Effect on rodent cerebrospinal fluid cGMP (rat); type: in vivo; conditions: po, read-out: % CSF cGMP increase from vehicle control
Method: 3) Effect on Rodent Cerebrospinal Fluid cGMP
The test compound was administered to ICR male mice (Charles River Laboratories Japan, Inc.), Sprague-Dawley male rats (SD) (Charles River Laboratories Japan, Inc.) or Long-Evans male rats (LE) (Institute for Animal Reproduction), and the cerebrospinal fluid was then collected under pentobarbital anesthesia and stored at −20° C. cGMP in the cerebrospinal fluid was measured in accordance with the acetylation EIA procedure of cGMP EIA kit (GE Healthcare) or the non-acetylation procedure of cGMP EIA kit (Cayman) The result was an increase (C) in the amount of cGMP of the test compound-administered group (B) relative to the amount of cGMP of the vehicle-administered group (A), and was calculated using the following formula cGMP increase(C)=[(B)−(A)]/(A)×100(%)

[2] = biological target: T1, human recombinant PDE9 protein (Homo sapiens, UniProt O76083); test: PDE9 inhibitory activity test (measurement of PDE9 inhibitory action, [3H]-cGMP); type: biochemical; conditions: PDE9 IC50, human recombinant PDE9, 30° C., 10 min
T1 construct: His-tag (inferred from the Ni column purification; a myc His-tag vector is named only for the HEK293 expression check); made in house; host or cells: silkworm (pYNG vector, Katakura Industries)
From the text: 1) Preparation of a Human Recombinant PDE9 Protein
An hsPDE9A 1cDNA fragment was amplified by being based on a base sequence (Accession No.: AF048837) of the hsPDE9A1 registered on GenBank data base, and by using the following sequences (Hokkaido System Science Co., Ltd.) as a primer and Human hippocampus cDNA library (Clontech Laboratories, Inc.) as a template DNA, and using Pfu50 DNA polymerase (Invitrogen Corp.), and by a polymerase chain reaction (PCR) of the following condition.
The condition of PCR: [96° C., 5 min]×1 cycle, [(96° C., 10 sec), (57° C., 5 sec), (72° C., 2 min)]×30 cycles
The obtained hsPDE9A 1 cDNA fragment was incorporated in a TOPO-TA cloning vector (Invitrogen Corp.), and the base sequence was checked; and thereafter, the resultant was transfected in a pcDNA 3.1/myc His-tag vector (Invitrogen Corp.) to thereby make a human PDE9 expression vector for mammal cells. The human PDE9 expression vector for mammal cells was transfected with transient expression to an HEK293 cell by using a LIPOFETAMINE 2000 Reagent (Gibco). It was confirmed by Western blot method that the PDE9A expressed in the HEK293 cell, and then, the human PDE9A 1cDNA fragment was transfected in a pYNG vector (Katakura Industries Co., Ltd.) to thereby make an expression vector for insect cells. A supernatant of homogenized silk worm in which a large amount of PDE9 was expressed was purified by an equilibrated Ni column using a buffer A (20 mmol/L Tris-HCl, pH: 8.0, 1 mmol/L DTT, 10 mmol/L imidazole). After 1 hour of mixing of the supernatant and the Ni column, cleaning was carried out using a buffer B (20 mmol/L Tris-HCl, pH: 8.0, 1 mmol/L […]), and elution was carried out using a buffer C (20 mmol/L Tris-HCl, pH: 8.0, 1 mmol/L DTT, 100 mmol/L imidazole). An elution fraction was preparatively collected to thereby obtain a PDE9 enzyme solution.
2) Measurement of PDE9 Inhibitory Action
To 100 μL of a buffer D (40 mmol/L Tris-HCl, pH: 7.4, 10 mmol/L MgCl2, 1 mM DTT, 2 μM cGMP) solution containing [^3H]-cGMP ([…]/mL), 10 μL of a compound solution for evaluation (a solution in which a compound was dissolved in DMSO and diluted so that the DMSO concentration became 5%) and 90 μL of a solution prepared by diluting the PDE9 enzyme solution prepared in the above with a buffer E (40 mmol/L Tris-HCl, pH: 7.4, 10 mmol/L MgCl2, 1 mM DTT, 1 mmol/L EGTA) were added under ice cooling. The resultant mixed solution was incubated at 30° C. for 10 min, and thereafter heated for 2 min in boiled water to stop the enzyme reaction of the PDE9. Then, the resultant was returned to room temperature; 50 μL of 5′-Nucleotidase (Biomol GmbH, 10 units/mL) was added thereto; and the resultant was incubated at 30° C. for 10 min to thereby convert [^3H]-5′-GMP formed in the previous reaction to [^3H]-guanosine. 500 μL of an anion exchange resin (Bio-Rad AG1-X2 resin, mesh size: 200-400, H2O:resin=2:1) was added to the resultant reaction liquid, and allowed to stand for 10 min, and thereafter centrifuged (2,000 rpm, 10 min); and a supernatant in which the [^3H]-guanosine was present was transferred to a LumaPlate (PerkinElmer, Inc.), and the radioactivity was measured by a TopCount NXT microplate scintillation and luminescence counter (PerkinElmer, Inc.).
The inhibition percentage of the evaluation compound was calculated using the following expression, taking the radioactivity of a control containing no evaluation compound to be (A), the radioactivity of a blank containing no enzyme to be (B), and the radioactivity of the evaluation compound to be (C). Inhibition percentage=100−{[(C)−(B)]/[(A)−(B)]}×100(%)
The IC50 value for PDE9 of the evaluation compound was determined from inhibition percentage for various concentrations.

T1 sequence (O76083 whole entry): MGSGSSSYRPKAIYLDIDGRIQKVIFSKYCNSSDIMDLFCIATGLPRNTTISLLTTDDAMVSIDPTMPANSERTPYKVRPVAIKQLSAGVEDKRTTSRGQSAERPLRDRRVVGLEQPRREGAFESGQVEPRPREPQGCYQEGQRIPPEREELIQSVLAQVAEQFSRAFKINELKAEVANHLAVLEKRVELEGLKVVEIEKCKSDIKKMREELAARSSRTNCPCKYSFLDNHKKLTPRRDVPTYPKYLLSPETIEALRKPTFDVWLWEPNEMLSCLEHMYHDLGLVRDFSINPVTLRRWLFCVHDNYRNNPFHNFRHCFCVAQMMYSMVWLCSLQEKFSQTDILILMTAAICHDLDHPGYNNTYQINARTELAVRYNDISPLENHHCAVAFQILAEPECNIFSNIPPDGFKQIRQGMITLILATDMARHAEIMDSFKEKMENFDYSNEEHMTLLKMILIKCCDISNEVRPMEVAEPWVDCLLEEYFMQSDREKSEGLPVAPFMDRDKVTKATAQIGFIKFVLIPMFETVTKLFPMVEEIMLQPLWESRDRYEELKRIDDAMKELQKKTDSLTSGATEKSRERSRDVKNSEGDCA

Row | Compound | IC50 [2] [nM] | further results
1 | COc1nccc(C)c1-c1ccc2c(c1)[nH]c(=O)c1cnn(C3CCOC3)c12 (single isomer, unassigned) [32 (−)] | 12.2 | change in vivo at 10 mg/kg ([1]; rat(SD), 10 mg/kg p.o., sampling time 1 hr): 72%
2 | COc1nc(C)cc(C)c1-c1ccc2c(c1)[nH]c(=O)c1cnn(C3CCOC3)c12 (single isomer, unassigned; (-)) [28 (−), (−)-7-(2-methoxy-4,6-dimethylpyridin-3-yl)-1-(tetrahydrofuran-3-yl)-1H-pyrazolo[4,3-c]quinolin-4(5H)-one] | 8.36 | change in vivo at 3 mg/kg ([1]; Rattus norvegicus, 1 h): 257%
3 | COc1nccc(C)c1-c1ccc2c(c1)[nH]c(=O)c1cnn(C3CCOCC3)c12 [Example 6, 7-(2-methoxy-4-methylpyridin-3-yl)-1-(tetrahydro-2H-pyran-4-yl)-1H-pyrazolo[4,3-c]quinolin-4(5H)-one] | 6.86 | change in vivo at 10 mg/kg ([1]; Rattus norvegicus, 1 h): 120%
4 | COc1ncc(F)c(C)c1-c1ccc2c(c1)[nH]c(=O)c1cnn(C3CCOCC3)c12 [Example 12] | 19.7 | change in vivo at 3 mg/kg ([1]; Rattus norvegicus, 1 h): 91%
5 | CCOc1nccc(C)c1-c1ccc2c(c1)[nH]c(=O)c1cnn(C3CCOCC3)c12 [Example 23, 7-(2-ethoxy-4-methylpyridin-3-yl)-1-(tetrahydro-2H-pyran-4-yl)-1H-pyrazolo[4,3-c]quinolin-4(5H)-one] | 9.51 | –
6 | Cc1cc(C2CCOCC2)cc(C)c1-c1ccc2c(c1)[nH]c(=O)c1cnn(C3CCOCC3)c12 [Example 40, 7-[2,6-dimethyl-4-(tetrahydro-2H-pyran-4-yl)phenyl]-1-(tetrahydro-2H-pyran-4-yl)-1H-pyrazolo[4,3-c]quinolin-4(5H)-one] | 3.21 | –
7 | COc1cc(C)c(-c2ccc3c(c2)[nH]c(=O)c2cnn(C4COCCOC4)c23)c(C)c1 [Example 44] | 12.1 | –
8 | COc1nc(C)cc(C)c1-c1ccc2c(c1)[nH]c(=O)c1cnn(C3COCCOC3)c12 [Example 45, 1-(1,4-dioxepan-6-yl)-7-(2-methoxy-4,6-dimethylpyridin-3-yl)-1H-pyrazolo[4,3-c]quinolin-4(5H)-one] | 3.33 | –
9 | COc1cc(C)c(-c2ccc3c(c2)[nH]c(=O)c2cnn(C4COCCOC4)c23)c(C)n1 [Example 46] | 18.1 | –
10 | COc1nccc(C)c1-c1ccc2c(c1)[nH]c(=O)c1cnn(C3COCCOC3)c12 [Example 47] | 5.67 | –
11 | Cc1cnc(OC(C)C)c(C)c1-c1ccc2c(c1)[nH]c(=O)c1cnn([C@H]3CCOC3)c12 [Example 48, (S)-7-(2-isopropyloxy-3,5-dimethylpyridin-4-yl)-1-(tetrahydrofuran-3-yl)-1H-pyrazolo[4,3-c]quinolin-4(5H)-one] | 8.35 | –
12 | Cc1cnc(OC(F)F)c(C)c1-c1ccc2c(c1)[nH]c(=O)c1cnn([C@H]3CCOC3)c12 [Example 49] | 12.2 | –
13 | CCOc1ncc(C)c(-c2ccc3c(c2)[nH]c(=O)c2cnn([C@H]4CCOC4)c23)c1C [Example 50] | 6.51 | –
14 | COc1nc(C)cc(C)c1-c1cc2[nH]c(=O)c3cnn(C4CCOCC4)c3c2cc1F [Example 52, 8-fluoro-7-(2-methoxy-4,6-dimethylpyridin-3-yl)-1-(tetrahydro-2H-pyran-4-yl)-1H-pyrazolo[4,3-c]quinolin-4(5H)-one] | 4.77 | –
15 | CCc1c(OC)ncc(C)c1-c1ccc2c(c1)[nH]c(=O)c1cnn([C@H]3CCOC3)c12 [Example 56, (S)-7-(3-ethyl-2-methoxy-5-methylpyridin-4-yl)-1-(tetrahydrofuran-3-yl)-1H-pyrazolo[4,3-c]quinolin-4(5H)-one] | 10.1 | –
16 | COc1ncc(C)c(-c2cc3[nH]c(=O)c4cnn([C@@H]5CCOC5)c4c3cc2F)c1C [Example 57, (R)-8-fluoro-7-(2-methoxy-3,5-dimethylpyridin-4-yl)-1-(tetrahydrofuran-3-yl)-1H-pyrazolo[4,3-c]quinolin-4(5H)-one] | 43.9 | –
17 | COc1nc(C)cc(C)c1-c1cc2[nH]c(=O)c3cnn([C@@H]4CCOC4)c3c2cc1F [Example 58] | 11.7 | –
18 | COc1cc(C)c(-c2cc3[nH]c(=O)c4cnn([C@@H]5CCOC5)c4c3cc2F)c(C)n1 [Example 59] | 71.5 | –
